This note sets out measurements from patent US6440989B2, “Phenyl-substituted tricyclic inhibitors of farnesyl-protein transferase” (Schering Corporation, priority 1997, dated 2002).

Structures are written as SMILES. A value given as a limit tells only on which side of the number the result lay.

The target in the experiment is T1, partially purified rat brain farnesyl protein transferase (FPT) (Rattus norvegicus, UniProt Q02293+Q04631).
T1 construct: partially purified rat brain farnesyl protein transferase (FPT); from tissue; host or cells: rat brain
The experiment is described as follows: In vitro enzyme assay: inhibition of Ras-CVLS farnesylation by farnesyl protein transferase. In kind it is biochemical. The method, then:
1. In vitro enzyme assays: FPT IC50 (inhibition of farnesyl protein transferase, in vitro enzyme assay) are determined by the methods disclosed in WO/10515 or WO 95110516.
As to `COc1cc(C)cc2c1C(C1CCN(C(=O)Cc3cc[n+]([O-])cc3)CC1)c1ncc(Br)cc1CC2` (racemic) [Example 3, (+,−)-4-(3-Bromo-10-methoxy-8-methyl-6,11-dihydro-5H-benzo[5,6]cyclohepta[1,2-b]pyridin-11-yl)-1-(4-pyridinylacetyl)piperidine N1-oxide], the midpoint of inhibition, the IC50, lay at 3.2 nM. In turn, `COc1cc(C)cc2c1C(C1CCN(C(=O)Cc3cc[n+]([O-])cc3)CC1)c1ncccc1CC2` (racemic) [Example 4, (+,−)-4-(6,11-dihydro-10-methoxy-8-methyl-5H-benzo[5,6]cyclohepta[1,2-b]pyridin-11-yl)-1-(4-pyridinylacetyl)piperidine N-1 oxide] gave an IC50 of 140 nM.

The compound `Cc1cc(O)c2c(c1)CCc1cc(Br)cnc1C2C1CCN(C(=O)Cc2cc[n+]([O-])cc2)CC1` (racemic) [Example 9, (+,−)-4-(3-Bromo-10-hydroxy-8-methyl-5,6-dihydro-11H-benzo[5,6]cyclohepta[1,2-b]pyridin-11-yl)-1-(4-pyridinylacetyl)piperidine N1-oxide] registered an IC50 of 120 nM. The figure for `COc1cc(C)cc2c1C(N1CCN(C(=O)Cc3cc[n+]([O-])cc3)CC1)c1ncc(Br)cc1CC2` (racemic) [Example 10, (+,−)-1-(3-Bromo-10-methoxy-8-methyl-6,11-dihydro-5H-benzo[5,6]cyclohepta[1,2-b]pyridin-1 1-yl)-4-(4-pyridinylacetyl)piperazine N4-oxide] is 16 nM. Under `Cc1cccc2c1CCc1cc(Br)cnc1C2N1CCN(C(=O)Cc2cc[n+]([O-])cc2)CC1` (racemic) [Example 14, (+,−)-1-(3-Bromo-7-methyl-6,11-dihydro-5H-benzo[5,6]cyclohepta[1,2-b]pyridin-11-yl)-4-(4-pyridinylacetyl)piperazine N4-oxide] stands 110 nM; under `Cc1ccc(C)c2c1CCc1cc(Br)cnc1C2N1CCN(C(=O)Cc2cc[n+]([O-])cc2)CC1` (racemic) [Example 15, (+,−)-1-(3-Bromo-7,10-dimethyl-6,11-dihydro-5H-benzo[5,6]cyclohepta[1,2-b]pyridin-11-yl)-4-(4-pyridinylacetyl)piperazine N4-oxide], 130 nM; under `Cc1ccc2c(c1)CCc1cc(Br)cnc1C2N1CCN(C(=O)Cc2cc[n+]([O-])cc2)CC1` (racemic) [Example 16, (+,−)-1-(3-Bromo-8-methyl-6,11-dihydro-5H-benzo[5,6]cyclohepta[1,2-b]pyridin-11-yl)-4-(4-pyridinylacetyl)piperazine N4-oxide], 64 nM. Under `COc1ccc2c(c1)CCc1cc(Br)cnc1C2N1CCN(C(=O)Cc2cc[n+]([O-])cc2)CC1` (racemic) [Example 17, (+,−)-1-(3-Bromo-6,11-dihydro-8-methoxy-5H-benzo[5,6]cyclohepta[1 ,2-b]pyridin-11-yl)-4-(4-pyridinylacetyl)piperazine N4-oxide] stands 290 nM; under `Cc1cc(C)c2c(c1)CCc1cc(Br)cnc1C2N1CCN(C(=O)Cc2cc[n+]([O-])cc2)CC1` (racemic) [Example 18, (+,−)-1-(3-Bromo-6,11-dihydro-8,10-dimethyl-5H-benzo[5,6]cyclohepta[1,2-b]pyridin-11-yl)-4-(4-pyridinylacetyl)piperazine N4-oxide], 43 nM; under `Cc1cc(Br)c2c(c1)CCc1cc(Br)cnc1C2N1CCN(C(=O)Cc2cc[n+]([O-])cc2)CC1` (racemic) [Example 21], 4.8 nM. With `Cc1cc(Br)cc2c1C(N1CCN(C(=O)Cc3cc[n+]([O-])cc3)CC1)c1ncc(Br)cc1CC2` (racemic) [Example 22, (+,−)-1-(3,8-Dibromo-6,11-dihydro-10-methyl-5H-benzo[5,6]cyclohepta[1,2-b]pyridin-11-yl)-4-(4-pyridinylacetyl)piperazine N4-oxide], the half-maximal inhibitory concentration (IC50) is 9.9 nM. This IC50 is about 2.1-fold higher than that of the compound before. Under `COc1cc(C)cc2c1C(C1CCN(C(=O)Cc3cc[n+]([O-])cc3)CC1)c1ncc(C(C)(C)O)cc1CC2` (racemic) [Example 23, (+,−)-4-[6,11-dihydro-3-(1-hydroxy-1-methylethyl)-10-methoxy-8-methyl-5H-benzo[5,6]cyclohepta[1,2-b]pyridin-11-yl]-1-(4-pyridinylacetyl)piperidine N1-oxide] stands greater than 200 nM; under `COc1cc(C)c2c(c1)CCc1cc(Br)cnc1C2N1CCN(C(=O)Cc2cc[n+]([O-])cc2)CC1` (racemic) [Example 26, (+,−)-1-(3-Bromo-8-methoxy-10-methyl-6,11-dihydro-5H-benzo[5,6]cyclohepta[1 ,2-b]pyridin-11-yl)-4-(4-pyridinylacetyl)piperzazine N4-oxide], 58 nM; under `COc1cc(C)cc2c1C(C1CCN(C(=O)Cc3cc[n+]([O-])cc3)CC1)c1ncc(C3CC3)cc1CC2` (racemic) [Example 32], greater than 200 nM.

As to `COc1cc(C)cc2c1C(N1CCN(C(=O)Cc3cc[n+]([O-])cc3)CC1)c1ncc(Br)cc1CC2` (single isomer, unassigned; (+)) [Example 20, (+)-1-(3-Bromo-10-methoxy-8-methyl-6,11-dihydro-5H-benzo[5,6]cyclohepta[1,2-b]pyridin-11-yl)-4-(4-pyridinylacetyl)piperazine N4-oxide, (+) enantiomer], the concentration for half-maximal inhibition (IC50) is greater than 180 nM. The figure for `COc1cc(C)cc2c1C(C1CCN(C(=O)Cc3cc[n+]([O-])cc3)CC1)c1ncc(Br)cc1CC2` (single isomer, unassigned; (+)) [Example 24, (+)-4-(3-Bromo-10-methoxy-8-methyl-6,11-dihydro-5H-benzo[5,6]cyclohepta[1,2-b]pyridin-11-yl)-4-(4-pyridinylacetyl)piperidine N1-oxide, (+) enantiomer] is 3.6 nM; for `Cc1cc(Br)c2c(c1)CCc1cc(Br)cnc1C2C1CCN(C(=O)Cc2cc[n+]([O-])cc2)CC1` (single isomer, unassigned; (+)) [Example 33, (+) 4-(3-Bromo-6,11-dihydro-10-bromo-8-methyl-5H-benzo[5,6]cyclohepta[1,2-b]pyridin-11-yl)-1-(4-pyridinylacetyl)piperidine N1 -Oxide] it is 1.2 nM; for `Cc1cc(Br)c2c(c1)CCc1cc(Br)cnc1C2(O)C1CCN(C(=O)Cc2cc[n+]([O-])cc2)CC1` (single isomer, unassigned; (+)) [Example 35, (+) 4-(3-Bromo-6,11-dihydro-11-hydroxy-10-bromo-8-methyl-5H-benzo[5,6]cyclohepta[1,2-b]pyridin-11-yl)-1-(4-pyridinylacetyl)piperidine N1-Oxide] it is 10.8 nM. The figure for `COc1cc(C)cc2c1C(N1CCN(C(=O)Cc3cc[n+]([O-])cc3)CC1)c1ncc(Br)cc1CC2` (single isomer, unassigned; (-)) [Example 19, (−)-1-(3-Bromo-10-methoxy-8-methyl-6,11-dihydro-5H-benzo[5,6]cyclohepta[1,2-b]pyridin-11-yl)-4-(4-pyridinylacetyl)piperazine N4-oxide, (−) enantiomer] is 4.2 nM; for `COc1cc(C)cc2c1C(C1CCN(C(=O)Cc3cc[n+]([O-])cc3)CC1)c1ncc(Br)cc1CC2` (single isomer, unassigned; (-)) [Example 25, (−)-4-(3-Bromo-10-methoxy-8-methyl-6,11-dihydro-5H-benzo[5,6]cyclohepta[1,2-b]pyridin-11-yl)-4-(4-pyridinylacetyl)piperidine N1-oxide, (−) enantiomer] it is 220 nM; for `Cc1cc(Br)c2c(c1)CCc1cc(Br)cnc1C2C1CCN(C(=O)Cc2cc[n+]([O-])cc2)CC1` (single isomer, unassigned; (-)) [Example 34, (−) 4-(3-Bromo-6,11-dihydro-10-bromo-8-methyl-5H-benzo[5,6]cyclohepta[1,2-b]pyridin-11-yl)-1-(4-pyridinylacetyl)piperidine N1-Oxide] it is greater than 16 nM. The compound `Cc1cc(Br)c2c(c1)CCc1cc(Br)cnc1C2(O)C1CCN(C(=O)Cc2cc[n+]([O-])cc2)CC1` (single isomer, unassigned; (-)) [Example 36, (−) 4-(3-Bromo-6,11-dihydro-11-hydroxy-10-bromo-8-methyl-5H-benzo[5,6]cyclohepta[1,2-b]pyridin-11-yl)-1-(4-pyridinylacetyl)piperidine N1-Oxide] showed a half-maximal inhibitory concentration (IC50) of 5.4 nM.

The compound `COc1cc2c(c(OC)c1)C(N1CCN(C(=O)Cc3cc[n+]([O-])cc3)CC1)c1ncc(Br)cc1CC2` (stereo not drawn) [Example 1, 1-(3-Bromo-6,11-dihydro-8,10-dimethoxy-5H-benzo[5,6]cyclohepta[1,2-b]pyridin-11-yl)-4-(4-pyridinylacetyl)piperazine N4-oxide] yielded a half-inhibitory concentration (IC50) of 67 nM. In the case of `COc1cc(C)cc2c1C(C1CCN(C(=O)Cc3cc[n+]([O-])cc3)CC1)c1ncc(C)cc1CC2` (stereo not drawn) [Example 2, 4-(6,11-dihydro-10-methoxy-3,8-dimethyl-5H-benzo[5,6]cyclohepta[1,2-b]pyridin-11-yl)-1-(4-pyridinylacetyl)piperidine N1-15 oxide], half-maximal inhibition (IC50) required 34 nM. Compared with the last compound, the IC50 is about 2-fold lower.

`COc1cc(C)c(Cl)c2c1C(=C1CCN(C(=O)Cc3cc[n+]([O-])cc3)CC1)c1ncccc1CC2` [Example 5, (+,−)-4-(7-Chloro-5,6-dihydro-8-methyl-10-methoxy-11H-benzo[5,6]cyclohepta[1,2-b]pyridin-11-ylidene)-1-(4-pyridinylacetyl)piperidine N1-oxide] returned a half-maximal inhibitory concentration (IC50) greater than 200 nM. On to `Cc1cc(O)c2c(c1)CCc1cc(Br)cnc1C2=C1CCN(C(=O)Cc2cc[n+]([O-])cc2)CC1` [Example 6, (+,−)-4-(3-Bromo-10-hydroxy-8-methyl--5,6-dihydro-11H-benzo[5,6]cyclohepta[1,2-b]pyridin-11-ylidene)-1-(4-pyridinylacetyl)piperidine N1-oxide], for which the IC50 was determined as 45 nM.

The compound `COc1cc(C)cc2c1C(=C1CCN(C(=O)Cc3cc[n+]([O-])cc3)CC1)c1ncc(C)cc1CC2` [Example 7, 4-(5,6-dihydro-10-methoxy-3,8-dimethyl-11H-benzo[5,6]cyclohepta[1,2-b]pyridin-11-ylidene)-1-(4-pyridinylacetyl)piperidine N1-oxide] gave an IC50 of 60 nM.
